The source of these data is US20140088314A1, “BIFUNCTIONAL CHELATING AGENTS” (GENERAL ELECTRIC COMPANY, priority 2012, published 2014).

The test system of data set [1] is mammary MATBIII tumor. As to the kind of experiment: Dynamic contrast enhanced (DCE) MR tumor imaging. Format: in vivo, SCID mice. Particulars: dose 0.2 mmol/kg Gd, Fe, mammary MBIII rodent tumor model. As to the method:
Cell Preparation: MATBIII breast cells (available from ATCC®) were trypsinized using 1×trypsin-EDTA. The cells were washed using 1× phosphate buffered saline (PBS) and aliquots of 2×10^6 cells were made in 1×PBS (100 uL). Prior to injection into the subject, 50 μL of basement membrane matrix (Matrigel®, BD Biosciences) was added to each aliquot.
Tumor Induction: All procedures involving animals were completed under protocols approved by the GE Global Research Institutional Animal Care and Use Committee. Female, 5-7 weeks old, SCID mice (Charles River Laboratories) were briefly anesthetized with 2% isoflurane and injected with 1×10^6 MATBIII breast cancer cells in 1×PBS (100 μL) and Matrigel SC to their left flank. The animals were monitored for 7 days post tumor cell injections at which point, precontrast agent MR images of the resulting lesions, typically 1 cm in diameter, were collected using the sequences described below.

Data set [2] is described as follows: Hydrodynamic size assay (dynamic light scattering). In kind it is physicochemical. To be noted: size printed beside agent name in Table 8. As to the method: The dilution was carried out to yield approximately 20,000 counts per second during the DLS measurement and the sample was allowed to equilibrate for 10 minutes in the instrument prior to data collection.

With `CNC[C@H](O)[C@@H](O)[C@H](O)[C@H](O)CO.CNC[C@H](O)[C@@H](O)[C@H](O)[C@H](O)CO.O=C([O-])CN(CCN(CC(=O)[O-])CC(=O)O)CCN(CC(=O)[O-])CC(=O)O.[Gd+3]` [Magnevist - Gd], the “Tumor-to-muscle signal enhancement ratio, Tumor: Muscle, Average” value in data set [1] turned out to be 3.6. For the same molecule, in data set [2], the Agent size entry is “Magnevist - Gd (1 nm)”.
